Laboratory results as given in patent US7141680B2, “Aromatic compounds possessing antifungal or antibacterial activity” (Genelabs Technologies, Inc., priority 2002, dated 2006).
Where a name gives a salt, the structure may show the parent alone.

Tests used:
bacteria = assay: Minimum inhibitory concentration (MIC) assay, bacteria; assay type: cell-based
Description: (§1) The assays described below were used to measure the minimum inhibitory concentration (MIC) of a compound necessary to inhibit visible growth of the organism tested. These assays are adapted from NCCLS protocols M7-A4 and M27-A (NCCLS vol 17:9 and vol 17:2) as modified by Sandven, S., Clin. Micro. (1999) 37:12, p. 3856–3859. MIC values for Aspergillus species were determined using NCCLS protocol M38-P.
(§2) All compounds were dissolved in 100% DMSO to a stock concentration of 10 mM and used fresh stock compounds in powder form were kept frozen until needed and used freshly. When used for test purposes, compounds were diluted in the appropriate media depending on the organism being tested.
(§3) For yeast and aspergillus species, seven 1:2 serial dilutions of compound in appropriate media buffered with MOPS at pH 7.0 were prepared such that the final starting test compound concentrations were 44.4 μM for yeast and 50 μM aspergillus species. For bacteria, dilutions were made in growth media used for the particular bacteria being tested.
Five well-separated colonies from a 24 h Sabouraud Dextrose plate incubated at 35° C. were picked and resuspended into 2 mL of normal saline. The O.D.530 was read and the culture was adjusted to 0.5 McFarland units with normal saline. A 1:2000 dilution was made with RPMI 1640 media buffered with MOPS at pH 7.0 and 100 μL of this inoculum preparation was added to an equal volume of test compound-containing media. 25 μL of the redox indicator Alamar Blue (Biosource International) was added to each well and the plates were incubated for 48 h at 35° C. Wells having yeast growth changed color from blue to pink.
Inoculums are made in the same manner as yeast except all dilutions are made in normal saline, with a final dilution of 1:200 and an inoculum of 10 μL.

Aspergillus species = assay: Minimum inhibitory concentration (MIC) assay, filamentous fungi; assay type: cell-based; conditions: antifungal activity, lowest concentration at which 75% inhibition of growth is observed after 48 h
Description: as §1, §2, §3
Inoculums are made by incubating Aspergillus species for 7 days at 35° C. on potato dextrose agar slants. Slants are then covered with 1.0 mL of 0.85% saline, one drop of Tween 20 is added and colonies are teased with a sterile transfer loop to create a suspension which is allowed to sit for 5 min so heavier particles can drop out. The upper suspension is separated and adjusted to an optical density of 0.09 to 0.11. The resulting suspension is diluted 1:50, which yields 2× the final inoculum needed. Micro dilution trays are prepared as with yeast and incubated for 48 h at 35° C. For our purposes the MIC is defined as the lowest compound concentration at which 75% inhibition of growth is observed after 48 h.

Structure (SMILES)	MIC (bacteria) [µM]	MIC (Aspergillus species) [µM]
CNC(=N)NCCCNC(=O)c1ccc2[nH]c(C(=O)Nc3ccc4cc(C(=O)NCCCNC(=N)NC)[nH]c4c3)cc2c1 [Compound 73, 1H-Indole-2,5-dicarboxylic acid 5-[(3-(N′-methyl-guanidino)-propyl)-amide] 2-{[2-(3-(N′-methyl-guanidino)-propylcarbamoyl)-1H-indol-6-yl-]-amide}]	≤ 45.5	≤ 50
C/N=C(\NC)NCCCNC(=O)c1ccc2[nH]c(C(=O)Nc3ccc4cc(C(=O)NCCCN/C(=N/C)NC)[nH]c4c3)cc2c1 [Compound 74, 1H-Indole-2,5-dicarboxylic acid 5-[(3-(N N′,N″-dimethyl-guanidino)-propyl)-amide] 2-{[2-(3-(N′,N″-dimethyl-guanidino)-propylcarbamoyl)-1H-indol-6-yl-]-amide}]	≤ 45.5	≤ 50
N=C(N)NCCCNC(=O)c1ccc2[nH]c(C(=O)Nc3ccc4[nH]c(C(=O)NCCCNC(=N)N)cc4c3)cc2c1 [Compound 75, 1H-Indole-2,5-dicarboxylic acid 5-[(3-guanidino-propyl)-amide] 2-{[2-(3-guanidino-propylcarbamoyl)-1H-indol-5-yl-]-amide}]	≤ 45.5	≤ 50
CNC(=N)NCCCNC(=O)c1ccc2[nH]c(C(=O)Nc3ccc4[nH]c(C(=O)NCCCNC(=N)NC)cc4c3)cc2c1 [Compound 76, 1H-Indole-2,5-dicarboxylic acid S-[(3-(N′-methyl-guanidino)-propyl)-amide] 2-[[2-(3-(N′-methyl-guanidino)-propylcarbamoyl)-1H-indol-5-yl-]-amide)]	≤ 45.5	≤ 50
C/N=C(\NC)NCCCNC(=O)c1ccc2[nH]c(C(=O)Nc3ccc4[nH]c(C(=O)NCCCN/C(=N/C)NC)cc4c3)cc2c1 [Compound 77, 1H-Indole-2,5-dicarboxylic acid 5-[(3-(N′,N″-dimethyl-guanidino)-propyl)-amide] 2-{[2-(3-(N′,N″-dimethyl-guanidino)-propylcarbamoyl)-1H-indol-5-yl-]-amide}]	≤ 45.5	≤ 50
CC(C)Cn1cc(NC(=O)c2cc3cc(C(=O)NCCNC(=N)N)ccc3[nH]2)cc1C(=O)NCCNC(=N)N [Compound 80, 1H-Indole-2,5-dicarboxylic acid 5-[(2-guanidino-ethyl)-amide] 2-{[5-(2-guanidino-ethylcarbamoyl)-1-isobutyl-1H-pyrrol-3-yl]-amide)]	≤ 45.5	≤ 50
CNC(=N)NCCNC(=O)c1ccc2[nH]c(C(=O)Nc3cc(C(=O)NCCNC(=N)NC)n(CC(C)C)c3)cc2c1 [Compound 81, 1H-Indole-2,5-dicarboxylic acid 2-({1−isobutyl-5-[2-(N′-methyl-guanidino)-ethylcarbamoyl]-1H-pyrrol-3-yl}amide) 5-{[2-(N′-methyl-guanidino)-ethyl]-amide}]	≤ 45.5	≤ 50
N=C(N)NCCNC(=O)c1ccc2[nH]c(C(=O)Nc3ccc4[nH]c(C(=O)NCCNC(=N)N)cc4c3)cc2c1 [Compound 82, 1H-Indole-2,5-dicarboxylic acid 5-[(2-guanidino-ethyl)-amide] 2-{[2-(2-guanidino-ethylcarbamoyl)-1H-indol-5-yl]-amide}]	≤ 45.5	≤ 50
CC(=N)NCCNC(=O)c1ccc2[nH]c(C(=O)Nc3ccc4[nH]c(C(=O)NCCNC(C)=N)cc4c3)cc2c1 [Compound 89]	≤ 45.5	≤ 50
CC/N=C(\NC)NCCNC(=O)c1ccc2[nH]c(C(=O)Nc3ccc4[nH]c(C(=O)NCCN/C(=N/CC)NC)cc4c3)cc2c1 [Compound 91, 1H-Indole-2,5-dicarboxylic acid 2-{[2-(N′-ethyl-N′-methylguanidino)ethyl]amide} 5-({2-[2-(N′-ethyl-N″-methylguanidino)ethylcarbamoyl]-1H-indol-5-yl}amide), dihydrochloride]	≤ 45.5	≤ 50
CN/C(=N\CCO)NCCNC(=O)c1ccc2[nH]c(C(=O)Nc3ccc4[nH]c(C(=O)NCCN/C(=N/CCO)NC)cc4c3)cc2c1 [Compound 92, 1H-Indole-2,5-dicarboxylic acid 2-({2-[N′-(2-hydroxyethyl)-N″-methylguanidino]ethyl}amide) 5-({2-(2-[N′-(2-hydroxyethyl)-N″-methylguanidino]ethylcarbamoyl)-1H-indol-5-yl}amide]dihydrochloride]	≤ 45.5	≤ 50
N=C(N)CCNC(=O)c1cc(NC(=O)c2ccc(C(=O)NCCNC(=N)N)cc2)cn1CC1CC1 [Compound 100, N-[5-(2-Carbamimidoyl-ethylcarbamoyl)-1-cyclopropylmethyl-1H-pyrrol-3-yl]-N′-(2-guanidino-ethyl)-terephthalamide]	≤ 45.5	≤ 50
CNC(=N)NCCNC(=O)c1cc2cc(NC(=O)c3cc4cc(NC(=N)NC)ccc4[nH]3)ccc2[nH]1 [Compound 108, 5-[(5-(N′-methyl-guanidine)-1H-indole-2-carbonyl)-amino]-1H-indole-2-carboxylic acid [2-(N′-methyl-guanidino)ethyl]-amide]	≤ 45.5	≤ 50
CNC(=N)NCCNC(=O)c1cc2cc(NC(=O)c3cc4cc(NC(=O)CNC(=N)NC)ccc4[nH]3)ccc2[nH]1 [Compound 110]	≤ 45.5	≤ 50
CC(C)Cn1cc(NC(=O)c2cc3cc(NC(=O)CCNC(=N)N)ccc3[nH]2)cc1C(=O)NCCC(=N)N [Compound 115, 5-(3-Guanidino-propionylamino)-1H-indole-2-carboxylic acid [5-(2-carbamimidoyl-ethylcarbamoyl)-1-isobutyl-1H-pyrrol-3-yl]-amide]	≤ 45.5	≤ 50
N=C(N)NCCNC(=O)c1ccc2[nH]c(C(=O)Nc3ccc4cc(C(=O)NCNC(=N)N)[nH]c4c3)cc2c1 [Compound 171, 1H-Indole-2,5-dicarboxylic acid 5-[(2-guanidino-ethyl)-amide] 2-{[2-(guanidinomethyl-carbamoyl)-1H-indol-6-yl]-amide}]	≤ 45.5	≤ 50
N=C(N)NCCNC(=O)c1ccc2[nH]c(C(=O)Nc3ccc4sc(C(=O)NCCNC(=N)N)cc4c3)cc2c1 [Compound 174, 1H-Indole-2,5-dicarboxylic acid 5-[(2-guanidino-ethyl)-amide] 2-{[2-(2-guanidino-ethylcarbamoyl)-benzo[b]thiophen-5-yl]-amide}]	≤ 45.5	≤ 50
N=C(N)NCCNC(=O)c1ccc2[nH]c(C(=O)Nc3ccc4cc(C(=O)NCCNC(=N)c5ccccn5)[nH]c4c3)cc2c1 [Compound 180, 1H-Indole-2,5-dicarboxylic acid 5-[(2-guanidinoethyl)amide] 2-[(2-{2-[(pyridine-2-carboximidoyl)amino]ethylcarbamoyl}-1H-indol-6-yl)amide]]	≤ 45.5	≤ 50
N=C(N)CCCNC(=O)c1cc2ccc(NC(=O)c3cc4cc(C(=O)NCCNC(=N)N)ccc4[nH]3)cc2[nH]1 [Compound 181, 1H-Indole-2,5-dicarboxylic acid 2-{[2-(3-carbamimidoylpropylcarbamoyl)-1H-indol-6-yl]amide} 5-[(2-guanidinoethyl)amide]]	≤ 45.5	≤ 50
